This is an account of results in ChEMBL document CHEMBL2311249, “Development of inhibitors of the PAS-B domain of the HIF-2α transcription factor” (J Med Chem, 2013).

The target of assay [1] is Aryl hydrocarbon receptor nuclear translocator/Endothelial PAS domain-containing protein 1 (Homo sapiens, UniProt P27540+Q99814). Description: (§1) Inhibition of GST-tagged PAS-B domain of HIF-2alpha-Flag-tagged PAS-B domain of ARNT heterodimerization (unknown origin) by luminescence proximity assay. It counts as protein assay.
The target of assay [2] is Aryl hydrocarbon receptor nuclear translocator/Endothelial PAS domain-containing protein 1 (Homo sapiens, UniProt Q99814). The description is as §1. It counts as protein assay.
Assay [3] deals with Endothelial PAS domain-containing protein 1 (Homo sapiens, UniProt Q99814). Briefly: Binding affinity to wild type PAS-B domain of HIF-2alpha (unknown origin) by isothermal calorimetry analysis.
Endothelial PAS domain-containing protein 1, sequence (Q99814 whole entry, the tested form may be a part): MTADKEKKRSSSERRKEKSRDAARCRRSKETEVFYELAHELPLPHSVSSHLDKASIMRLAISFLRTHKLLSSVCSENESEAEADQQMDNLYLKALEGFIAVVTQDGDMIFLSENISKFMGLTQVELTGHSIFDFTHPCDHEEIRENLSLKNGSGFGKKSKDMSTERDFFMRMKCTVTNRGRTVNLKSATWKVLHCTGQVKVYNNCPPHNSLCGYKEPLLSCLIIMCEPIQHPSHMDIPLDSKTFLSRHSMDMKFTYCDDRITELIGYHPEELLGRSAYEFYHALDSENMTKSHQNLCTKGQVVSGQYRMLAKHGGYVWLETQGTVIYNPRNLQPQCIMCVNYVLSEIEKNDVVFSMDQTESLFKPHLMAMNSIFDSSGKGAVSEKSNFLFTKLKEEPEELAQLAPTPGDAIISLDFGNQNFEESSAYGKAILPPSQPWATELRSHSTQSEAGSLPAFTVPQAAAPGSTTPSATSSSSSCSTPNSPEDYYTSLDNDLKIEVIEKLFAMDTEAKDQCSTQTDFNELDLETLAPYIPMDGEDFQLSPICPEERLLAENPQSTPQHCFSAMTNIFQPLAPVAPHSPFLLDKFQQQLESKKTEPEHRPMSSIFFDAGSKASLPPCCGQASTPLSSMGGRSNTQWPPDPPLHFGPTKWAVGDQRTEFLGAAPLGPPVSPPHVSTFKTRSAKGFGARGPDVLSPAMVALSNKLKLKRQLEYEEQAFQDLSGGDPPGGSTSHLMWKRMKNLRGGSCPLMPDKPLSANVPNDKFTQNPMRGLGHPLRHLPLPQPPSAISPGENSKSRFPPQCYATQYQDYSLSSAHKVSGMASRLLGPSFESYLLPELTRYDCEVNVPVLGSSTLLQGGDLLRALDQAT

Aryl hydrocarbon receptor nuclear translocator/Endothelial PAS domain-containing protein 1 (Homo sapiens, UniProt Q99814), sequence (P27540 whole entry, the tested form may be a part): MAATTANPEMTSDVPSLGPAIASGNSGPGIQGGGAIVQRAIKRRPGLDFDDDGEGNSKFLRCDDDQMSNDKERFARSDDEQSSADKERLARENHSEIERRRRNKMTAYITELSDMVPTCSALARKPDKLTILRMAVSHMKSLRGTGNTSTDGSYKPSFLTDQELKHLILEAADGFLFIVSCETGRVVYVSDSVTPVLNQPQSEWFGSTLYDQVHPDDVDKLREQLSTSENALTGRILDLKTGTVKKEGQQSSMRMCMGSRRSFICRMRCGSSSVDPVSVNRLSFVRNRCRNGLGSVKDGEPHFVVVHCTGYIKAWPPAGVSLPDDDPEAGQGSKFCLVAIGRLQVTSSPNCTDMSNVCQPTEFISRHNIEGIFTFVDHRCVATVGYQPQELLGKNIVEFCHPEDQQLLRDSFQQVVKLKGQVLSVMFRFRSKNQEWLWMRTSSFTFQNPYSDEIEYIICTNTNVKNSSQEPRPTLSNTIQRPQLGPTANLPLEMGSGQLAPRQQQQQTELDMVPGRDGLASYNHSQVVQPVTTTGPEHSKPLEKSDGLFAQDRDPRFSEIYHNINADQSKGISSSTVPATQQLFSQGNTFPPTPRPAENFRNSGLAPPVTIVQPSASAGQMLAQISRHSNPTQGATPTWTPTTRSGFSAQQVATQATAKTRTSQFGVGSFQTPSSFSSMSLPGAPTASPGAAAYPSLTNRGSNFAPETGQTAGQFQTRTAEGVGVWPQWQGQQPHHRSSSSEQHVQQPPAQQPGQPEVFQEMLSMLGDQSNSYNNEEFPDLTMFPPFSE
Aryl hydrocarbon receptor nuclear translocator/Endothelial PAS domain-containing protein 1 (Homo sapiens, UniProt Q99814), sequence (Q99814 whole entry, the tested form may be a part): as the sequence (Q99814 whole entry, the tested form may be a part) above
Aryl hydrocarbon receptor nuclear translocator/Endothelial PAS domain-containing protein 1 (Homo sapiens, UniProt P27540+Q99814), sequence (P27540 whole entry, the tested form may be a part): as the sequence (P27540 whole entry, the tested form may be a part) above
Aryl hydrocarbon receptor nuclear translocator/Endothelial PAS domain-containing protein 1 (Homo sapiens, UniProt P27540+Q99814), sequence (Q99814 whole entry, the tested form may be a part): as the sequence (Q99814 whole entry, the tested form may be a part) above

Regarding `O=[N+]([O-])c1c(Nc2ccc(Br)cc2)ccc2nonc12`, the IC50 result in assay [1] was “Not Active”.

With `O=[N+]([O-])c1c(Nc2ccc(Cl)cc2)ccc2nonc12`, the IC50 result in assay [1] is recorded as “Not Active”. With `O=[N+]([O-])c1c(Nc2cc(F)cc(C(F)(F)F)c2)ccc2nonc12`, the IC50 in assay [2] worked out at 430 nM.

Consider `O=[N+]([O-])c1c(Nc2cc(F)cc(F)c2)ccc2nonc12`, for which binding in assay [3] was put at a Kd of 730 nM. For the same compound, inhibition in assay [2] was half-maximal at 2000 nM (IC50). For the compound `O=[N+]([O-])c1c(Nc2ccc(Cl)c(Cl)c2)ccc2nonc12`, the IC50 in assay [2] worked out at 120 nM.

In assay [3], `O=[N+]([O-])c1c(Nc2cc(F)cc(Cl)c2)ccc2nonc12` registered a Kd of 90 nM. In assay [2], this compound had an IC50 of 100 nM. For the compound `O=[N+]([O-])c1ccccc1Nc1cc(F)cc(Cl)c1`, the Kd in assay [3] was 4300 nM. Further, in assay [1], the concentration for half-maximal inhibition (IC50) entry is “Not Active”. Compound `O=[N+]([O-])c1c(Nc2cc(F)cc(Cl)c2)ccc2nn[nH]c12` had a Kd in assay [3] greater than 20000 nM. For the same compound, the IC50 in assay [2] is greater than 10000 nM. In assay [2], `O=[N+]([O-])c1c(Nc2cc(F)cc(Cl)c2)ccc2[nH]cnc12` registered an IC50 of less than 5000 nM.

Compound `Nc1nc2ccc(Nc3cc(F)cc(Cl)c3)c([N+](=O)[O-])c2[nH]1` came in with an IC50 in assay [2] greater than 2000 nM. `CN(c1cc(F)cc(Cl)c1)c1ccc2nonc2c1[N+](=O)[O-]`: the Kd in assay [3] is greater than 10000 nM. In assay [2], this compound yielded an IC50 greater than 3000 nM. Consider `Fc1cc(Cl)cc(Nc2ccc3nonc3c2)c1`, for which, in assay [3], the Kd was 3000 nM. For the same compound, the IC50 entry in assay [1] was “Not Active”. As to `Nc1c(Nc2cc(F)cc(Cl)c2)ccc2nonc12`, the Kd in assay [3] was 6000 nM. In assay [2], this compound had a half-inhibitory concentration (IC50) greater than 30000 nM. Regarding `CC(=O)Nc1c(Nc2cc(F)cc(Cl)c2)ccc2nonc12`, in assay [1], the IC50 result is “Not Active”. For the compound `O=C(CCl)Nc1c(Nc2cc(F)cc(Cl)c2)ccc2nonc12`, the IC50 result in assay [1] is on record as “Not Active”. The same measure, in the same setting: the entry for `O=C1C=CC(=O)N1c1c(Nc2cc(F)cc(Cl)c2)ccc2nonc12` is “Not Active”.

Take `CNS(=O)(=O)c1c(Nc2cc(F)cc(Cl)c2)ccc2nonc12`: the IC50 result in assay [1] is reported as “Not Active”. Turning to `CN(C)S(=O)(=O)c1c(Nc2cc(F)cc(Cl)c2)ccc2nonc12`, the IC50 result in assay [1] was “Not Active”.

As for `O=[N+]([O-])c1c(NCc2ccc(Cl)cc2)ccc2nonc12`, in assay [1], the IC50 result is reported as “Not Active”. In turn, `O=[N+]([O-])c1c(NCc2ccc(F)cc2Cl)ccc2nonc12` showed an IC50 in assay [2] of 330 nM. With `O=[N+]([O-])c1c(NCc2c(F)cccc2Cl)ccc2nonc12`, the IC50 entry in assay [1] was “Not Active”. `O=[N+]([O-])c1c(NCc2cc(F)cc(Cl)c2)ccc2nonc12` showed an IC50 in assay [2] of 2000 nM. In assay [2], `O=[N+]([O-])c1c(NCc2cc(F)ccc2F)ccc2nonc12` had an IC50 greater than 10000 nM. Compound `O=[N+]([O-])c1c(NCc2ccc(F)cc2C(F)(F)F)ccc2nonc12` came in with a Kd in assay [3] of 540 nM. The concentration for half-maximal inhibition (IC50) in assay [2] worked out at 500 nM.

For `O=[N+]([O-])c1c(NCc2cc(F)ccc2C(F)(F)F)ccc2nonc12`, in assay [1], the IC50 result was “Not Active”.

Regarding `O=[N+]([O-])c1c(Sc2ccccc2)ccc2nonc12`, in assay [1], the IC50 entry is “Not Active”. With `O=[N+]([O-])c1c(Sc2cccc(F)c2)ccc2nonc12`, the IC50 result in assay [1] was “Not Active”. Still for that read-out and setting: the entry for `O=[N+]([O-])c1c(Sc2cc(F)cc(Cl)c2)ccc2nonc12` is “Not Active”; for `O=[N+]([O-])c1c(Oc2cc(F)cc(Cl)c2)ccc2nonc12` it is “Not Active”. `COc1cccc(Nc2ccc3nonc3c2[N+](=O)[O-])c1`: the 50% inhibitory concentration (IC50) result in assay [1] is “Not Active”.

For `O=[N+]([O-])c1c(Nc2ccc(F)cc2)ccc2nonc12`, the IC50 entry in assay [1] was “Not Active”. On to `O=[N+]([O-])c1c(Nc2cccc(Cl)c2)ccc2nonc12`, for which the IC50 in assay [2] was 180 nM. The compound `O=[N+]([O-])c1c(Nc2cccc(C(F)(F)F)c2)ccc2nonc12` came in with an IC50 in assay [2] of 460 nM. As for `O=[N+]([O-])c1cccc(Nc2ccc3nonc3c2[N+](=O)[O-])c1`, in assay [3], the Kd is 3000 nM. The compound further had an IC50 in assay [2] of 2800 nM. `O=[N+]([O-])c1c(Nc2cccc(F)c2)ccc2nonc12` returned a dissociation constant (Kd) in assay [3] of 2200 nM. In assay [2], this compound registered an IC50 of 2100 nM. With `O=[N+]([O-])c1c(Nc2ccc(C(F)(F)F)cc2Cl)ccc2nonc12`, in assay [1], the 50% inhibitory concentration (IC50) result is listed as “Not Active”. Turning to `O=[N+]([O-])c1c(Nc2cccc(F)c2Cl)ccc2nonc12`, in assay [1], the IC50 result is recorded as “Not Active”. Consider `O=[N+]([O-])c1c(Nc2cccc(Cl)c2F)ccc2nonc12`, for which the IC50 in assay [2] worked out at 760 nM. As to `O=[N+]([O-])c1c(Nc2ccc(F)c(Cl)c2)ccc2nonc12`, the Kd in assay [3] came to 400 nM. Inhibition in assay [2] was half-maximal at 170 nM (IC50). The corresponding values for `O=[N+]([O-])c1c(Nc2ccc(Cl)c(C(F)(F)F)c2)ccc2nonc12` are 170 nM and 90 nM. `O=[N+]([O-])c1cc(Nc2ccc3nonc3c2[N+](=O)[O-])ccc1Cl` gave an IC50 in assay [2] of 400 nM. For `O=[N+]([O-])c1c(NCc2ccccc2)ccc2nonc12`, in assay [2], the IC50 was greater than 5000 nM. `Cc1ccc(CNc2ccc3nonc3c2[N+](=O)[O-])cc1`: in assay [1], the IC50 entry is recorded as “Not Active”.
